Data reported in patent US20240228463A1, “SODIUM CHANNEL INHIBITORS AND METHODS OF DESIGNING SAME” (Genentech, Inc., priority 2021, published 2024).
Structures can show the parent of a compound that is named as a salt.

What follows are compounds tested against T1, hNaV1.7 (Homo sapiens, UniProt Q15858) (assay: Patch voltage clamp electrophysiology (EP), Syncropatch 384PE, Nav1.7 in CHO cells). Conditions: holding potential −50 mV, inhibition based on 7.5 min compound incubation, read-out: hNaV1.7 EP_SP.
T1 construct: expressed in transfected cells
Type: cell-based
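Also: Nav1.7 stably expressed from cDNA in CHO cells, holding potential of −50 mV kept for the entire experiment.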

T1 sequence (Q15858 1-1977 isoform Q15858-3): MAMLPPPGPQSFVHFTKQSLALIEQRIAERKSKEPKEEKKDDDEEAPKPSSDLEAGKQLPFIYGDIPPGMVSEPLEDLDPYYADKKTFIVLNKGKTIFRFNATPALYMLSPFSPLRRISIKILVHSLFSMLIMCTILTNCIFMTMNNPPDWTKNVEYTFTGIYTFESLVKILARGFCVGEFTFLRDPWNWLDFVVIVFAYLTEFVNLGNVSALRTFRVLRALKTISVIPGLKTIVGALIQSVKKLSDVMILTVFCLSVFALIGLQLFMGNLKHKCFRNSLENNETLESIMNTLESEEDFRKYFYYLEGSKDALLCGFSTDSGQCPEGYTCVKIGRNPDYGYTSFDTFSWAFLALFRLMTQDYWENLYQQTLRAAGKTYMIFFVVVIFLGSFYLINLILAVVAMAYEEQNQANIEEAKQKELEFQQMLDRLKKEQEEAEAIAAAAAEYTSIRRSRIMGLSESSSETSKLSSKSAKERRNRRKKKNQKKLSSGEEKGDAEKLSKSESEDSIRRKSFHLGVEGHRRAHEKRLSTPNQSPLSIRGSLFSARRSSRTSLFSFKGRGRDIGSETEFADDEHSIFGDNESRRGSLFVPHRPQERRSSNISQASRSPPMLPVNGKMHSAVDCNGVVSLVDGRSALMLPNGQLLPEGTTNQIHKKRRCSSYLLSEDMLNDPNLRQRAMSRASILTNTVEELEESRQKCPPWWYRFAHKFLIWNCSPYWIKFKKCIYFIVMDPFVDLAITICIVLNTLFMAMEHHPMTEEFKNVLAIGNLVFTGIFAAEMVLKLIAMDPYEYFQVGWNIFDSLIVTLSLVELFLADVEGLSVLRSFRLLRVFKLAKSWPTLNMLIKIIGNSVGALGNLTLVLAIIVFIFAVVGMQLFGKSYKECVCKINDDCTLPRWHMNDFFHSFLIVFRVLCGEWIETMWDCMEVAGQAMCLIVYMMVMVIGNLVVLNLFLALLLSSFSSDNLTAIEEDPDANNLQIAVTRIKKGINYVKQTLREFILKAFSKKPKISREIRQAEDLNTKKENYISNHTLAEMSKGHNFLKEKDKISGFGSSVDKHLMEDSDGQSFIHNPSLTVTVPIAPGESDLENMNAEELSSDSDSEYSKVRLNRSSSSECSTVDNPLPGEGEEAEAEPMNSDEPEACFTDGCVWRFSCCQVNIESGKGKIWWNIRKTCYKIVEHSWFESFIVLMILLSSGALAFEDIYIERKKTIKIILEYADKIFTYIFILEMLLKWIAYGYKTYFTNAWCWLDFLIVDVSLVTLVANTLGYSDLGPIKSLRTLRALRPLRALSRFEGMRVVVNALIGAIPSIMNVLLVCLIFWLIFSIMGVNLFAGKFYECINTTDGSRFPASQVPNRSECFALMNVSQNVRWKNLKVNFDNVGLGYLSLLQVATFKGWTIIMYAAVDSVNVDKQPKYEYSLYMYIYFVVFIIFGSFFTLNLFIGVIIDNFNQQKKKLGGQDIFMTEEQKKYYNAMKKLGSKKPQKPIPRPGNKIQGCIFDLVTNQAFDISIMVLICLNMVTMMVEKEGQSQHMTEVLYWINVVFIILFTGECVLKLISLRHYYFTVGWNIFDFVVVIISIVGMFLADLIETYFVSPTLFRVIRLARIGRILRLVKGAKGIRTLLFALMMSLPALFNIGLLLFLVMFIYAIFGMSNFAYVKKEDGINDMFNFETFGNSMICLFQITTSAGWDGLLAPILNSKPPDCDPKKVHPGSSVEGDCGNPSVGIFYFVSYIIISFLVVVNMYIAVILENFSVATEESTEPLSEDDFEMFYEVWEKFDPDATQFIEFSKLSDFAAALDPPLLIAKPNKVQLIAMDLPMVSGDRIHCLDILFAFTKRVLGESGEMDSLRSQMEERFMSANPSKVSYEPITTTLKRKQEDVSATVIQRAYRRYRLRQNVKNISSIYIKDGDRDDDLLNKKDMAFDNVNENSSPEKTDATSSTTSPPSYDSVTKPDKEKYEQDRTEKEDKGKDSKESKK

Row | IC50 [nM] | Compound
1 | 18 | O=C(NS(=O)(=O)c1ccc(OCc2cccnc2)cc1)c1cc(Cl)c(OCC2CCCC2)cc1F [Example 310, 5-chloro-4-(cyclopentylmethoxy)-2-fluoro-N-((4-(pyridin-3-ylmethoxy)phenyl)sulfonyl)benzamide]
2 | 710 | N#Cc1ccc(S(=O)(=O)NC(=O)c2cc(Cl)c(OCC3CCCC3)cc2F)cc1C(F)(F)F [Example 280, 5-chloro-N-((4-cyano-3-(trifluoromethyl)phenyl)sulfonyl)-4-(cyclopentylmethoxy)-2-fluorobenzamide]
3 | 28 | Cn1cncc1COc1ccc(S(=O)(=O)NC(=O)c2cc(Cl)c(OCC3CCCC3)cc2F)cc1 [Example 316, 5-chloro-4-(cyclopentylmethoxy)-2-fluoro-N-((4-((1-methyl-1H-imidazol-5-yl)methoxy)phenyl)sulfonyl)benzamide]
4 | 880 | O=C(NS(=O)(=O)c1ccc(NC2CCCCC2)cc1F)c1cc(Cl)c(OCC2CCCC2)cc1F [Example 208, 5-chloro-N-((4-(cyclohexylamino)-2-fluorophenyl)sulfonyl)-4-(cyclopentylmethoxy)-2-fluorobenzamide]
5 | 230 | O=C(NS(=O)(=O)CCOCc1ccccc1)c1cc(Cl)c(OCC2CCCC2)cc1F [Example 274, N-((2-(benzyloxy)ethyl)sulfonyl)-5-chloro-4-(cyclopentylmethoxy)-2-fluorobenzamide]
6 | 310 | O=C(NS(=O)(=O)N1CCc2ccccc2C1)c1cc(Cl)c(OCC2CCCC2)cc1F [Example 19, 5-chloro-4-(cyclopentylmethoxy)-N-((3,4-dihydroisoquinolin-2(1H)-yl)sulfonyl)-2-fluorobenzamide]
7 | 240 | O=C(NS(=O)(=O)c1ccc(OC2CCNC2)cc1)c1cc(Cl)c(OCC2CCCC2)cc1F (stereo not drawn) [Example 325, 5-chloro-4-(cyclopentylmethoxy)-2-fluoro-N-((4-(pyrrolidin-3-yloxy)phenyl)sulfonyl)benzamide]
8 | 130 | O=C(NS(=O)(=O)c1ccc(OC2CC2)cc1)c1cc(Cl)c(OCC2CCCC2)cc1F [Example 276, 5-chloro-4-(cyclopentylmethoxy)-N-((4-cyclopropoxyphenyl)sulfonyl)-2-fluorobenzamide]
9 | 110 | O=C(NS(=O)(=O)N1CCCc2cccnc21)c1cc(Cl)c(OCC2CCCC2)cc1F [Example 15, 5-chloro-4-(cyclopentylmethoxy)-N-((3,4-dihydro-1,8-naphthyridin-1(2H)-yl)sulfonyl)-2-fluorobenzamide]
10 | 100 | COc1cccc(COc2ccc(S(=O)(=O)NC(=O)c3cc(Cl)c(OCC4CCCC4)cc3F)cc2)c1 [Example 308, 5-chloro-4-(cyclopentylmethoxy)-2-fluoro-N-((4-((3-methoxybenzyl)oxy)phenyl)sulfonyl)benzamide]
11 | 140 | COc1ccc(S(=O)(=O)NC(=O)c2cc(Cl)c(OCC3CCCC3)cc2F)cc1 [Example 81, 5-chloro-4-(cyclopentylmethoxy)-2-fluoro-N-((4-methoxyphenyl)sulfonyl)-benzamide]
12 | 140 | Cc1ccc(COc2ccc(S(=O)(=O)NC(=O)c3cc(Cl)c(OCC4CCCC4)cc3F)cc2)cc1 [Example 313, 5-chloro-4-(cyclopentylmethoxy)-2-fluoro-N-((4-((4-methylbenzyl)oxy)phenyl)sulfonyl)benzamide]
13 | 620 | O=C(NS(=O)(=O)c1ccc(C(F)(F)F)cc1)c1cc(Cl)c(OCC2CCCC2)cc1F [Example 283, 5-chloro-4-(cyclopentylmethoxy)-2-fluoro-N-((4-(trifluoromethyl)phenyl)sulfonyl)benzamide]
14 | 230 | COc1ccccc1S(=O)(=O)NC(=O)c1cc(Cl)c(OCC2CCCC2)cc1F [Example 246, 5-chloro-4-(cyclopentylmethoxy)-2-fluoro-N-((2-methoxyphenyl)sulfonyl)benzamide]
15 | 760 | O=C(NS(=O)(=O)c1ccc2c(c1)NCC2)c1cc(Cl)c(OCC2CCCC2)cc1F [Example 282, 5-chloro-4-(cyclopentylmethoxy)-2-fluoro-N-(indolin-6-ylsulfonyl)benzamide]
16 | 530 | O=C(NS(=O)(=O)c1ccc2c(c1)CCCC2)c1cc(Cl)c(OCC2CCCC2)cc1F [Example 261, 5-chloro-4-(cyclopentylmethoxy)-2-fluoro-N-((5,6,7,8-tetrahydronaphthalen-2-yl)sulfonyl)benzamide]
17 | 14 | CC[C@H](C)S(=O)(=O)NC(=O)c1cc(Cl)c(OCC2CCCC2)cc1F (single isomer, unassigned) [Example 254]
18 | 110 | CN(C)C1CCCN(c2ccc(S(=O)(=O)NC(=O)c3cc(Cl)c(OCC4CCCC4)cc3F)cc2)C1 (single isomer, unassigned) [Example 209]
19 | 570 | O=C(NS(=O)(=O)c1ccc(OCc2cncnc2)cc1)c1cc(Cl)c(OCC2CCCC2)cc1F [Example 304, 5-chloro-4-(cyclopentylmethoxy)-2-fluoro-N-((4-(pyrimidin-5-ylmethoxy)phenyl)sulfonyl)benzamide]
20 | 250 | O=C(NS(=O)(=O)c1ccc(OCC(F)(F)F)cc1)c1cc(Cl)c(OCC2CCCC2)cc1F [Example 287, 5-chloro-4-(cyclopentylmethoxy)-2-fluoro-N-((4-(2,2,2-trifluoro-ethoxy)phenyl)sulfonyl)benzamide]

Further lines, the compound ahead of its results:

Row | Compound | IC50 [nM]
21 | N[C@]12C[C@H]1CN(S(=O)(=O)NC(=O)c1cc(Cl)c(OCC3CCCC3)cc1F)C2 (single isomer, unassigned) [Example 217, 2,2,2-trifluoroacetate] | 370
22 | CN(C)C[C@@H]1CN(S(=O)(=O)NC(=O)c2cc(Cl)c(OCC3CCCC3)cc2F)CCO1 (single isomer, unassigned) [Example 28] | 230
23 | NCC1CN(S(=O)(=O)NC(=O)c2cc(C3CC3)c(OCC3CCCC3)cc2F)CCO1 (stereo not drawn) [Example 330, N-((2-(aminomethyl)morpholino)sulfonyl)-4-(cyclopentylmethoxy)-5-cyclopropyl-2-fluorobenzamide] | 620
24 | O=C(NS(=O)(=O)N1CCC(O[C@@H]2CCNC2)CC1)c1cc(C2CC2)c(OCC2CCCC2)cc1F (single isomer, unassigned) [Example 29, 2,2,2-trifluoroacetate] | 27
25 | CO[C@H]1CC[C@H](S(=O)(=O)NC(=O)c2cc(Cl)c(OCC3CCCC3)cc2F)CC1 [Example 86, trans-5-chloro-4-(cyclopentylmethoxy)-2-fluoro-N-((4-methoxycyclohexyl)sulfonyl)benzamide] | 100
26 | CN(C)[C@H]1CCCC[C@@H]1Oc1ccc(S(=O)(=O)Nc2nc3cccc(Cl)c3s2)c(F)c1 [Example 99, N-(7-chlorobenzo[d]thiazol-2-yl)-4-(((1S,2S)-2-(dimethylamino)cyclohexyl)-oxy)-2-fluorobenzenesulfonamide] | 430
27 | CNC[C@@H]1CN(S(=O)(=O)NC(=O)c2cc(Cl)c(OCC3CCCC3)cc2F)CCO1 (single isomer, unassigned) [Example 26] | 190
28 | O=C(NS(=O)(=O)N1CC[C@@H]2CCC[C@H]21)c1cc(Cl)c(OCC2CCCC2)cc1F (single isomer, unassigned) [Example 220] | 14
29 | O=C(NS(=O)(=O)c1ccc(OCc2ccccc2)cc1F)c1cc(C2CC2)c(OCC2CCCC2)cc1F [Example 70, N-((4-(benzyloxy)-2-fluorophenyl)sulfonyl)-4-(cyclopentylmethoxy)-5-cyclopropyl-2-fluorobenzamide] | 60
30 | CN(C)C1CCN(S(=O)(=O)NC(=O)c2cc(Cl)c(OCC3CCCC3)cc2F)CC1 [Example 329, 5-chloro-4-(cyclopentylmethoxy)-N-((4-(dimethylamino)piperidin-1-yl)sulfonyl)-2-fluorobenzamide] | 1000
31 | CN(C)[C@H]1C[C@@H](c2cccc(C(F)(F)F)c2)CC[C@@H]1Oc1ccc(S(=O)(=O)NC(=O)c2cc(C3CC3)ccc2F)c(F)c1 [Example 75, 5-cyclopropyl-N-((4-(((1S,2S,4S)-2-(dimethylamino)-4-(3-(trifluoromethyl)-phenyl)cyclohexyl)oxy)-2-fluorophenyl)sulfonyl)-2-fluorobenzamide] | 120
32 | O=C(NS(=O)(=O)N1CC[C@H](OC2CCNCC2)C1)c1cc(Cl)c(OCC2CCCC2)cc1F (single isomer, unassigned) [Example 212] | 87
33 | CN(C)[C@H]1CCCC[C@@H]1Oc1ccc(S(=O)(=O)Nc2ccc(SCc3ccccc3Cl)cn2)c(F)c1 [Example 257, N-(5-((2-chlorobenzyl)thio)pyridin-2-yl)-4-(((1S,2S)-2-(dimethylamino)cyclohexyl)oxy)-2-fluorobenzenesulfonamide] | 730
34 | CN(C)[C@H]1CCCC[C@@H]1Nc1ccc(S(=O)(=O)Nc2nc3ccc(OCC4CCCC4)cc3s2)c(F)c1 [Example 96, N-(6-(cyclopentylmethoxy)benzo[d]thiazol-2-yl)-4-(((1S,2S)-2-(dimethyl-amino)cyclohexyl)-amino)-2-fluorobenzenesulfonamide formate] | 8.8
35 | CCc1cc(C(=O)NS(=O)(=O)N2CCC(OC3CN(C)C3)CC2)c(F)cc1OCC1CCCC1 [Example 3, 4-(cyclopentylmethoxy)-5-ethyl-2-fluoro-N-((4-((1-methylazetidin-3-yl)oxy)piperidin-1-yl)sulfonyl) benzamide] | 22
36 | CN(C)[C@H]1CCCC[C@@H]1Nc1cc(F)c(S(=O)(=O)Nc2nc3ccc(OCC4CCCC4)cc3s2)cc1Cl [Example 202, 5-chloro-N-(6-(cyclopentylmethoxy)benzo[d]thiazol-2-yl)-4-(((1S,2S)-2-(dimethylamino)cyclohexyl)amino)-2-fluorobenzenesulfonamide] | 22
37 | O=C(NS(=O)(=O)N1CCC(OC2CCNCC2)CC1)c1cc(Cl)c(OCC2CCCC2)cc1F [Example 53, 5-chloro-4-(cyclopentylmethoxy)-2-fluoro-N-((4-(piperidin-4-yloxy)piperidin-1-yl)sulfonyl) benzamide] | 250
38 | O=C(NS(=O)(=O)N1CC[C@H]2CCC[C@@H]21)c1cc(Cl)c(OCC2CCCC2)cc1F (single isomer, unassigned) [Example 221] | 16
39 | CNC1CN(S(=O)(=O)NC(=O)c2cc(Cl)c(OCC3CCCC3)cc2F)C1 [Example 226, 5-chloro-4-(cyclopentylmethoxy)-2-fluoro-N-((3-(methylamino)azetidin-1-yl)sulfonyl)benzamide formate] | 750
